Measured values published in PubChem BioAssay (NCI).
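Test compounds were applied to cells in 96-well plates for 48 hours at 5 doses. TGI marks complete inhibition of growth.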

How the values were obtained:
Experiment in all cases: NCI-60 cell line screen, 48 h
[1] = tested on: U251 CNS
[2] = tested on: ACHN renal
[3] = tested on: PC-3 prostate
[4] = tested on: LOX IMVI melanoma
[5] = tested on: KM12 colon
[6] = tested on: CCRF-CEM leukemia
[7] = tested on: SK-MEL-28 melanoma
[8] = tested on: IGROV1 ovarian
[9] = tested on: NCI-H226 lung
[10] = tested on: EKVX NSCLC
[11] = tested on: UO-31 renal
[12] = tested on: SN12C renal
[13] = tested on: MALME-3M melanoma
[14] = tested on: HCC-2998 colon
[15] = tested on: M14 melanoma
[16] = tested on: HCT-116 colon
[17] = tested on: MCF7 breast
[18] = tested on: K-562 leukemia
[19] = tested on: MDA-N
[20] = tested on: NCI-H460 lung
[21] = tested on: HOP-62 NSCLC
[22] = tested on: SW-620 colon
[23] = tested on: SK-MEL-5 melanoma
[24] = tested on: HT29 colon
[25] = tested on: OVCAR-5 ovarian
[26] = tested on: NCI-H522 lung
[27] = tested on: COLO 205 colon
[28] = tested on: HOP-92 NSCLC
[29] = tested on: BT-549 breast
[30] = tested on: CAKI-1 renal
[31] = tested on: RXF 393 renal
[32] = tested on: OVCAR-4 ovarian
[33] = tested on: SF-539 CNS
[34] = tested on: UACC-62 melanoma
[35] = tested on: DU-145 prostate
[36] = tested on: SK-MEL-2 melanoma
[37] = tested on: A549 NSCLC
[38] = tested on: A498 renal
[39] = tested on: NCI-H23 lung
[40] = tested on: T-47D breast
[41] = tested on: RPMI-8226 leukemia
[42] = tested on: OVCAR-8 ovarian
[43] = tested on: SK-OV-3 ovarian
[44] = tested on: SNB-75 CNS
[45] = tested on: SF-268 CNS
[46] = tested on: MOLT-4 leukemia
[47] = tested on: OVCAR-3 ovarian
[48] = tested on: SR leukemia
[49] = tested on: SF-295 CNS
[50] = tested on: HCT-15 colon
[51] = tested on: HS 578T breast
[52] = tested on: TK-10 renal
[53] = tested on: NCI/ADR-RES ovarian
[54] = tested on: MDA-MB-435
[55] = tested on: SNB-19 CNS
[56] = tested on: UACC-257 melanoma
[57] = tested on: HL-60(TB) leukemia
[58] = tested on: MDA-MB-231 breast
[59] = tested on: 786-0 renal

## CC(C)(C)OC(=O)NC(Cc1ccc(OCc2ccccc2)cc1)C(=O)NC(COCc1ccccc1)C(=O)Oc1c(Cl)c(Cl)c(Cl)c(Cl)c1Cl (stereo unspecified)
[1]
  TGI: 38.1 µM
[2]
  TGI: 76.6 µM
[3]
  TGI: 40.4 µM
[4]
  TGI: 53 µM
[5]
  TGI: 39 µM
[6]
  TGI: > 100 µM
[7]
  TGI: 71.8 µM
[8]
  TGI: 41.7 µM
[9]
  TGI: 54.5 µM
[10]
  TGI: 82.4 µM
[11]
  TGI: 30.7 µM
[12]
  TGI: 62.4 µM
[13]
  TGI: 68.2 µM
[14]
  TGI: 40.5 µM
[15]
  TGI: 42.9 µM
[16]
  TGI: 30.1 µM
[17]
  TGI: 48.2 µM
[18]
  TGI: > 100 µM
[19]
  TGI: 80.8 µM
[20]
  TGI: 36.7 µM
[21]
  TGI: 32.9 µM
[22]
  TGI: 73 µM
[23]
  TGI: 33.7 µM
[24]
  TGI: 69.7 µM
[25]
  TGI: 67.3 µM
[26]
  TGI: 42 µM
[27]
  TGI: 36.5 µM
[28]
  TGI: 32.8 µM
[29]
  TGI: 38.3 µM
[30]
  TGI: 47.4 µM
[31]
  TGI: 63.9 µM
[32]
  TGI: 85.3 µM
[33]
  TGI: 29.7 µM
[34]
  TGI: 32.3 µM
[35]
  TGI: 46.8 µM
[36]
  TGI: 36.6 µM
[37]
  TGI: 89.7 µM
[38]
  TGI: 53.2 µM
[39]
  TGI: 35.6 µM
[40]
  TGI: 88.5 µM
[41]
  TGI: > 100 µM
[42]
  TGI: 52.6 µM
[43]
  TGI: 46.9 µM
[44]
  TGI: > 100 µM
[45]
  TGI: 65.6 µM
[46]
  TGI: > 100 µM
[47]
  TGI: 28.9 µM
[48]
  TGI: > 100 µM
[49]
  TGI: 52.4 µM
[50]
  TGI: 33.5 µM
[51]
  TGI: 41.8 µM
[52]
  TGI: 85.8 µM
[53]
  TGI: 50 µM
[54]
  TGI: 56.7 µM
[55]
  TGI: > 100 µM
[56]
  TGI: 84.8 µM
[57]
  TGI: > 100 µM
[58]
  TGI: 27.6 µM

## CCOC(NC(=O)CC)(C(F)(F)F)C(F)(F)F
[1]
  TGI: > 100 µM
[2]
  TGI: > 100 µM
[3]
  TGI: > 100 µM
[4]
  TGI: > 100 µM
[5]
  TGI: > 100 µM
[6]
  TGI: > 100 µM
[7]
  TGI: > 100 µM
[8]
  TGI: > 100 µM
[9]
  TGI: > 100 µM
[10]
  TGI: > 100 µM
[11]
  TGI: > 100 µM
[12]
  TGI: > 100 µM
[13]
  TGI: > 100 µM
[14]
  TGI: > 100 µM
[15]
  TGI: > 100 µM
[16]
  TGI: > 100 µM
[17]
  TGI: > 100 µM
[18]
  TGI: > 100 µM
[19]
  TGI: > 100 µM
[20]
  TGI: > 100 µM
[21]
  TGI: > 100 µM
[22]
  TGI: > 100 µM
[23]
  TGI: > 100 µM
[24]
  TGI: > 100 µM
[25]
  TGI: > 100 µM
[26]
  TGI: > 100 µM
[27]
  TGI: > 100 µM
[28]
  TGI: > 100 µM
[29]
  TGI: > 100 µM
[30]
  TGI: > 100 µM
[31]
  TGI: 61.2 µM
[59]
  TGI: > 100 µM
[33]
  TGI: > 100 µM
[34]
  TGI: > 100 µM
[35]
  TGI: > 100 µM
[36]
  TGI: > 100 µM
[37]
  TGI: > 100 µM
[38]
  TGI: > 100 µM
[39]
  TGI: > 100 µM
[40]
  TGI: > 100 µM
[41]
  TGI: > 100 µM
[42]
  TGI: > 100 µM
[43]
  TGI: > 100 µM
[44]
  TGI: > 100 µM
[45]
  TGI: > 100 µM
[46]
  TGI: > 100 µM
[47]
  TGI: > 100 µM
[48]
  TGI: > 100 µM
[49]
  TGI: > 100 µM
[50]
  TGI: > 100 µM
[51]
  TGI: > 100 µM
[52]
  TGI: > 100 µM
[53]
  TGI: > 100 µM
[54]
  TGI: > 100 µM
[55]
  TGI: > 100 µM
[56]
  TGI: > 100 µM
[57]
  TGI: > 100 µM
[58]
  TGI: > 100 µM
